The values below come from patent publication US8993622B2, “Antiviral compounds” (Eirium AB, priority 2010, dated 2015).

Where two headings read alike, the source gives them in different places.

In one data set the test system is Ad5. Briefly: microbe, parasite or virus in culture. It counts as cell-based, human adenovirus.
For a further data set, the system named is Ad37 (D). Briefly: Quantitative real-time PCR of adenovirus DNA replication in A549 cells (Ad37). It counts as cell-based. The settings on record: Human adenovirus sp., read-out: % inhibition of DNA replication (SD). The procedure:
(§1) Approximately 1×10^5 A549 cells were seeded in 24-well plates (Nunc) on the day before infection. On the day of infection, the cells in one well were counted to establish the amount of virions to be added. The growth medium was removed and compound and virus were added simultaneously to the cells in 700 μl DMEM with 0.75 g/l NaHCO3, 20 mM HEPES, 1×PEST, and 1% FBS. Compounds were added in concentrations ranging from 0.5 μM to 15 μM. The final concentration of DMSO was less than 1% in all samples. One pg of Ad virions was added per cell. The plate was incubated at 37° C. in 5% CO2 and 24 h after infection the cells were harvested, washed once, and resuspended in PBS. […] The design of primers and probes for analysis of various Ad types representing different adenovirus species with quantitative PCR has been described previously (Allard et al. 2001. Rapid typing of human adenoviruses by a general PCR combined with restriction endonuclease analysis. Journal Clinical Microbiology 39:498-505). Briefly, quantitative real-time PCR was carried out using a degenerate primer pair, Kadgen1 (forward)—Kadgen 2 (reverse) (5′-CWT ACA TGC ACA TCK CSG G-3′—SEQ ID NO:1, and 5′-CRC GGG CRA AYT GCA CCA G-3′—SEQ ID NO:2, respectively); DNA technology A/S, Aarhus, Denmark). […] Real-time PCR was performed in an ABI PRISM 7700 Sequence Detector (Applied Biosystems) and analyzed with Sequence Detector v1.7a software.

The test system of the next data set is Ad4 (E). Put plainly: Quantitative real-time PCR of adenovirus DNA replication in A549 cells (Ad4). The data set is classed as cell-based. As to conditions: Human adenovirus sp., read-out: % inhibition of DNA replication (SD). The method, then:
as §1

For another data set, the system named is Ad41 (F). Briefly: Quantitative real-time PCR of adenovirus DNA replication in A549 cells (Ad41). The settings on record: Human adenovirus sp., read-out: % inhibition of DNA replication (SD). It counts as cell-based. The procedure:
as §1

The nature of data set [1]: Toxicity in the A549 cell system (XTT assay). The data set is classed as cell-based. The settings on record: human, A549 cells, read-out: 50% cytotoxic concentration (CC50). The method, then: FIG. 3. Titration of the effect of A02 on Ad5, Ad11p and the toxic effect in A549 cells following 24 h incubation with virus and/or compound A02. […] IC50 is the concentration at which the Ad replication is inhibited by 50% as determined by qPCR and CC50 is the concentration at which the cytotoxicity is 50%, i.e. 50% of the cells are viable, as determined by the XTT assay. Error bars represent the standard deviation of the means from three independent duplicate experiments.

Another data set concerns Ad5 hexon protein. Put plainly: FACS analysis of Ad5 hexon protein expression in A549 cells. It counts as cell-based, human adenovirus. The settings on record: 24 h. The procedure: FIG. 4. A. Binding of ^35S-labelled Ad5 to A549 cells in the presence of A02. Error bars represent the standard deviation of the means from three independent duplicate experiments. B. Flowcytometry assay detecting Ad5 (grey bars) and Ad11 (checkered bars) hexon protein following 24 h incubation with virus and compound A02. Error bars represent the standard deviation of the means from two independent duplicate experiments.
A binding assay using isotope-labeled virions was used to address whether the compound would prevent viral adhesion to host cells. At 15 μM, compound A02 has no effect on Ad5 binding to the surface of A549 cells (FIG. 4A). To further verify inhibition of viral replication, the effect on the expression of the most abundant viral structural protein (hexon) in A549 cells was studied by FACS analysis.

Where [2] appears, read: Human adenovirus sp., A549, read-out: % inhibition of DNA replication (SD).

For the compound `O=C(Nc1ccccc1C(=O)Nc1ccccc1C(=O)O)c1ccccc1` [Compound A02, 2-[[2-(Benzoylamino)benzoyl]amino]-benzoic acid], in the data set on Ad5 (A549 cells), the “effect on the replication of Ad5 (QPCR)” value is listed as “significant inhibitory effect”. Moreover, the “selectivity index (SI=CC50/IC50) for Ad5” value with Ad5 (A549 cells) turned out to be 54. The 50% inhibitory concentration (IC50) in the data set with Ad5 (Human adenovirus sp., A549, 24 h, read-out: IC50 for Ad5 replication (QPCR)) was determined as 3.7 µM. For the same compound, the inhibition at 5 µM was 72% with Ad5 (setting [2]); 89 ± 5% with Ad5 (unidentified adenovirus, A549, read-out: % Inh. at 5 μM); 86% in the data set with Ad37 (D) (5 μM); 85% in the data set with Ad4 (E) (5 μM); 80% with Ad41 (F) (5 μM). Besides, the inhibition at 15 µM in the data set with Ad5 (setting [2]) is 86%; in the data set on Ad5 (unidentified adenovirus, A549, read-out: % Inh. at 15 μM) it was 96 ± 1%; in the data set with Ad37 (D) (15 μM), 94%; in the data set with Ad4 (E) (15 μM) it was 96%; in the data set on Ad41 (F) (15 μM), 88%. In the data set on Ad5 (unidentified adenovirus, A549), the concentration giving a half-maximal response (EC50) came out at 3.7 µM. Further, the CC50 at 24 h in data set [1] turned out to be 199 µM. Moreover, the “expression of Ad5 hexon protein” value in the data set on Ad5 hexon protein is “inhibited by compound A02 in a dose-dependent manner”.
